Results published in PubChem BioAssay AID330 (DTP/NCI, 2004).
Several values for one entry are separate records, joined by “and”; a condition that tells them apart may be missing. Identical values can stand only once. Inconclusive results and toxic doses are left out. The calls were made as follows: active = survival T/C of 150% or more; inactive = T/C below 125% in these data.

System: P388 leukemia ip, CD2F1 mice, survival T/C
Assay: NCI In Vivo Anticancer Drug Screen. Data for tumor model P388 Leukemia (intraperitoneal) in CD2F1 (CDF1) mice
Conditions: endpoint: median survival time, higher = longer survival
Outline: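 Mice carrying the transplanted tumor received test compound or vehicle. Survival was recorded in each group, and the value is the treated-group measurement divided by that of the vehicle-treated control group.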

[1] = dose: 12.5 mg/kg/injection, schedule: Q01DX009 (ip), vehicle: saline with Tween-80
[2] = dose: 25.0 mg/kg/injection, schedule: Q01DX009 (ip), vehicle: saline with Tween-80
[3] = dose: 50.0 mg/kg/injection, schedule: Q01DX009 (ip), vehicle: saline with Tween-80
[4] = dose: 60.0 mg/kg/injection, schedule: Q01DX005 (ip), vehicle: saline with Tween-80
[5] = dose: 120.0 mg/kg/injection, schedule: Q01DX005 (ip), vehicle: saline with Tween-80
[6] = dose: 240.0 mg/kg/injection, schedule: Q01DX005 (ip), vehicle: saline with Tween-80

Measured: T/C

COc1cc2c[n+]3c4c(cccc4c2cc1OC)CCC3
inactive: dose: 12.5 mg/kg/injection, schedule: Q01DX009 (ip), vehicle: water 109 % of control | dose: 25.0 mg/kg/injection, schedule: Q01DX009 (ip), vehicle: water 108 % of control | dose: 50.0 mg/kg/injection, schedule: Q01DX009 (ip), vehicle: water 110 % of control

CNc1ccc([N+](=O)[O-])cc1C(=O)OC
inactive: [1] 99 % of control | [2] 98 % of control | [3] 102 % of control

CC1=CC(C)(C2(C)C=C(C)NC(=O)N2)NC(=O)N1 (stereo unspecified)
inactive: dose: 25.0 mg/kg/injection, schedule: Q01DX001 (ip), vehicle: Klucel (hydroxypropylcellulose) (HPC) 99 % of control | dose: 50.0 mg/kg/injection, schedule: Q01DX001 (ip), vehicle: Klucel (hydroxypropylcellulose) (HPC) 98 % of control | dose: 100.0 mg/kg/injection, schedule: Q01DX001 (ip), vehicle: Klucel (hydroxypropylcellulose) (HPC) 99 % of control

CC(C(=O)c1ccc(Cl)cc1)C1(O)C(=O)Nc2ccccc21 (stereo unspecified)
inactive: [4] 108 % of control | [5] 111 % of control | [6] 94 % of control

CCN1CC[N+](CC)=C1C(=S)[S-]
inactive: dose: 100.0 mg/kg/injection, schedule: Q01DX001 (ip), vehicle: saline with Tween-80 100 % of control | dose: 200.0 mg/kg/injection, schedule: Q01DX001 (ip), vehicle: saline with Tween-80 104 % of control | dose: 400.0 mg/kg/injection, schedule: Q01DX001 (ip), vehicle: saline with Tween-80 100 % of control

Cc1c(N)nc([C@H](CC(N)=O)NC[C@H](N)C(N)=O)nc1C(=O)N[C@H](C(=O)N[C@H](C)[C@@H](O)[C@H](C)C(=O)N[C@H](C(=O)NCCc1nc(-c2nc(C(=O)NCCC[S+](C)C)cs2)cs1)[C@@H](C)O)C(OC1OC(CO)C(O)C(O)C1OC1OC(CO)C(O)C(OC(N)=O)C1O)c1cnc[nH]1 (stereo partly specified)
inactive: dose: 3.13 mg/kg/injection, schedule: Q01DX009 (ip), vehicle: Klucel (hydroxypropylcellulose) (HPC) 121 % of control | dose: 3.5 mg/kg/injection, schedule: Q01DX009 (ip), vehicle: saline 100 % of control | dose: 3.6 mg/kg/injection, schedule: Q01DX009 (ip), vehicle: saline 117 % of control | dose: 4.0 mg/kg/injection, schedule: Q04DX003 (ip), vehicle: saline 115 % of control | dose: 5.3 mg/kg/injection, schedule: Q01DX009 (ip), vehicle: saline 107 % of control and 114 % of control | dose: 6.25 mg/kg/injection, schedule: Q01DX009 (ip), vehicle: Klucel (hydroxypropylcellulose) (HPC) 123 % of control | dose: 8.0 mg/kg/injection, schedule: Q04DX003 (ip), vehicle: saline 122 % of control | dose: 12.0 mg/kg/injection, schedule: Q01DX009 (ip), vehicle: saline 106 % of control and 121 % of control | dose: 12.5 mg/kg/injection, schedule: Q01DX009 (ip), vehicle: Klucel (hydroxypropylcellulose) (HPC) 121 % of control | dose: 16.0 mg/kg/injection, schedule: Q04DX003 (ip), vehicle: saline 121 % of control | dose: 25.0 mg/kg/injection, schedule: Q01DX009 (ip), vehicle: Klucel (hydroxypropylcellulose) (HPC) 94 % of control

N#CC1(c2ccccc2)OC1(C#N)c1ccccc1 (stereo unspecified)
inactive: [1] 96 % of control | [2] 101 % of control | dose: 37.5 mg/kg/injection, schedule: Q01DX009 (ip), vehicle: acetone 96 % of control | [3] 93 % of control | dose: 75.0 mg/kg/injection, schedule: Q01DX009 (ip), vehicle: acetone 95 % of control | dose: 150.0 mg/kg/injection, schedule: Q01DX009 (ip), vehicle: acetone 113 % of control

C[C@H]1C[C@](C)(CO)Oc2oc3ccccc3c(=O)c21
inactive: [4] 108 % of control | [5] 109 % of control | [6] 111 % of control

CC1(C)SC(C(NC(=O)Cc2ccccc2)C(=O)O)NC1C(=O)O (stereo unspecified)
inactive: dose: 100.0 mg/kg/injection, schedule: Q04DX003 (ip), vehicle: saline with Tween-80 90 % of control | dose: 200.0 mg/kg/injection, schedule: Q04DX003 (ip), vehicle: saline with Tween-80 100 % of control | dose: 400.0 mg/kg/injection, schedule: Q04DX003 (ip), vehicle: saline with Tween-80 104 % of control

O=C1CCC(Cc2ccccc2)CN1 (stereo unspecified)
inactive: [4] 97 % of control | [5] 101 % of control | [6] 97 % of control
